Like-named read-outs stand apart in the source and are kept apart here.
Biological target: T1, P236L viral reverse transcriptase (Human immunodeficiency virus type 1 group M subtype B, UniProt P04585, P823L)
T1 construct: P236L viral reverse transcriptase is obtained by PNAS 90: 4713-4717 (1993); made in house
Assay: inhibition of viral reverse transcriptase (P236L), cell free assay
Type: biochemical
Settings: 30 minutes at 37° C.
Excerpt: The utility of the pyrimidine-thioalkyl and alkylether anti-AIDS compounds of Formula IA of this invention can be determined by their ability to inhibit viral reverse transcriptase, an enzyme essential for human immunodeficiency virus replication. This enzyme has characteristics which differentiate it from other known cellular polymerases and it is a unique enzyme which is not found in uninfected cells. Viral reverse transcriptase (Wild Type) is found in extracts from bacterial clones prepared according to the procedure described in AIDS Virus Reverse Transcriptase defined by high level expression in Escherichia coli, EMBO J. 6:3133-3137 (1987). P236L viral reverse transcriptase is obtained by PNAS 90: 4713-4717 (1993). Inhibition of this enzyme is determined in a cell free assay which measures the level of radioactive precursors incorporated into DNA. Extracts prepared according to the procedure of Science, 1125-1129 (1981) are incubated in a mixture of inhibitor, 20 mM dithiothreitol, 60 mM sodium chloride, 0.05% NP-40, 10 mM magnesium chloride, 50 mM Tris pH 8.3, 10 μM [^35 S]-labeled deoxynuleoside-5'-triphosphate, 10 μg/ml RNA template (poly rC or poly rG) and 5 μg/ml DNA primer (oligo dG or oligo dT) for 30 minutes at 37° C. Incorporation of radio-labeled percursor is determined by spotting aliquots of the reaction mixture on DE81 paper, washing the papers to remove unincorporated percursor, drying and determining counts. The results (IC50 means the concentration, in μM of drug, required to inhibit the reverse transcriptase activity (P236L and Wild Type) to the extent of 50%) of various assay(s) are combined and reported as % inhibition and/or IC50 (calculated) in Table I (P236L) and Table II (Wild Type).

[1] = read-out: IC50 (Table I, P236L)

| Compound | IC50 [1] [nM] | IC50 (IC50 (Table I, P236L)) [nM] |
| --- | --- | --- |
| Cn1ccnc1CSc1nc(N)cc(Cl)n1 [Example 176, 4-Amino-6-chloro-2-[(1-methylimidazol-2-ylmethyl)thio]pyrimidine] | 25000 | – |
| CCc1ccc(CSc2nc(N)cc(Cl)n2)nc1 [Example 134, 4-amino-6-chloro-2-[2-(4-ethyl)pyridylmethylthio]-pyrimidine] | 50 | – |
| Nc1cc(Cl)nc(SCc2ccc(F)c(F)c2)n1 [Example 48, 4-amino-6-chloro-2-(3,4-difluorophenylmethylthio)-pyrimidine] | 500 | – |
| Nc1cc(Cl)nc(SCc2cc3ccccc3cn2)n1 [Example 182, 4-Amino-6-chloro-2-[(isoquinolin-3-ylmethyl)thio]pyrimidine] | 20 | – |
| Cc1cc(C)nc(CSc2nc(N)cc(Cl)n2)n1 [Example 127, 4-amino-6-chloro-2-[2-(4,6-dimethyl)pyrimidinylmethylthio]-pyrimidine] | 1000 | – |
| COc1ccnc(CSc2nc(N)cc(Cl)n2)c1 [Example 123, 4-amino-6-chloro-2-[2-(4-methoxy)pyridylmethylthio]-pyrimidine] | 50 | – |
| Nc1cc(Cl)nc(S(=O)(=O)Cc2cccc(Br)c2)n1 [Example 69, 4-amino-6-chloro-2-(3-bromophenylmethylsulfonyl)pyrimidine] | 20000 | – |
| Cc1cc(CSc2nc(N)cc(Cl)n2)no1 [Example 174, 4-Amino-6-chloro-2-[(5-methylisoxazol-3-ylmethyl)thio]pyrimidine] | 500 | – |
| CC(C)c1ccnc(CSc2nc(N)cc(Cl)n2)c1 [Example 132, 4-amino-6-chloro-2-[2-(4-isopropyl)pyridylmethylthio]-pyrimidine] | 20 | – |
| CC(C)Cc1ccnc(CSc2nc(N)cc(Cl)n2)c1 [Example 124, 4-amino-6-chloro-2-[2-(4-(2-methylpropyl))pyridylmethylthio]-pyrimidine] | 40000 | – |
| Cc1cccc(CSc2nc(N)cc(Cl)n2)n1 [Example 113, 4-amino-6-chloro-2-[2-(6-methyl)pyridylmethylthio]-pyrimidine] | 90 | – |
| Nc1cc(Cl)nc(SCc2c(Cl)cccc2Cl)n1 [Example 167, 4-amino-6-chloro-2-(2,6-dichlorophenyl)methylthio-pyrimidine] | 5000 | – |
| CNc1cc(C#N)nc(SCc2ccc3ccccc3c2)n1 [Example 288, 6-methylamino-2-(2-naphthylmethyl)thio-4-pyrimidine carbonitrile] | – | 50000 |
| CCCNc1cc(Cl)nc(SCc2ccccc2)n1 [Example 87, 4-propylamino-6-chloro-2-(benzylthio)-pyrimidine] | 100000 | – |
| Cc1cccnc1CSc1nc(N)cc(Cl)n1 [Example 117, 4-amino-6-chloro-2-[2-(3-methyl)pyridylmethylthio]-pyrimidine] | 1050 | – |
| CC(C)(C)c1ccc(CSc2nc(N)cc(Cl)n2)cc1 [Example 47, 4-amino-6-chloro-2-(4-t-butylphenylmethylthio)-pyrimidine] | 1000 | – |
| Cc1ccccc1CSc1nc(N)cc(Cl)n1 [Example 35, 4-amino-6-chloro-2-(2-methylphenylmethylthio)-pyrimidine] | 300 | – |
| Nc1cc(Cl)nc(SCc2cc(Br)ccn2)n1 [Example 119, 4-amino-6-chloro-2-[2-(4-bromo)pyridylmethylthio]-pyrimidine] | 40 | – |
| Nc1cc(Cl)nc(SCc2ccc(Cl)c(Cl)c2)n1 [Example 49, 4-amino-6-chloro-2-(3,4-dichlorophenylmethylthio)-pyrimidine] | 60 | – |
| Nc1cc(Cl)nc(SCc2ccccn2)n1 [Example 55, 4-amino-6-chloro-2-(2-pyridylmethylthio)-pyrimidine] | 2 | – |
| NNc1cc(Cl)nc(SCc2ccccc2)n1 [Example 88, 4-hydrazino-6-chloro-2-(benzylthio)-pyrimidine] | 5000 | – |
| Nc1cc(Cl)nc(SCc2cccc3ccccc23)n1 [Example 58, 4-amino-6-chloro-2-(1-naphthylmethylthio)-pyrimidine] | 30 | – |
| Nc1nc(SCc2ccccc2)nc(Cl)c1C1CCCCC1 [Example 53, 4-amino-6-chloro-5-cyclohexyl-2-(benzylthio)-pyrimidine] | 15000 | – |
| Nc1cc(Cl)nc(SCc2cc3c(cc2Cl)OCO3)n1 [Example 62, 4-amino-6-chloro-2-(6-chloro-5-piperonylmethylthio)-pyrimidine] | 20 | – |

| Compound | IC50 [1] [nM] | IC50 (IC50 (Table I, P236L)) [nM] |
| --- | --- | --- |
| COc1c(N)nc(SCc2ccc3ccccc3c2)nc1Cl [Example 89, 4-amino-5-methoxy-6-chloro-2-(2-naphthylmethylthio)-pyrimidine] | 5000 | – |
| Nc1cc(Cl)nc(SCc2ccnc3ccccc23)n1 [Example 181, 4-Amino-6-chloro-2-[(quinolin-4-ylmethyl)thio]pyrimidine] | 1000 | – |
| C=C(C)[C@@H]1CC=C(CSc2nc(N)cc(Cl)n2)CC1 [Example 157, 4-Amino-6-chloro-2-[((S)-(--)perillyl)thio]pyrimidine] | 10000 | – |
| Nc1cc(Cl)nc(SCc2ccc3ccccc3c2)n1 [Example 59, 4-amino-6-chloro-2-(2-naphthylmethylthio)-pyrimidine] | 36 | – |
| Nc1ccnc(SCc2ccc3ccccc3c2)n1 [Example 98, 4-amino-2-(2-naphthylmethylthio)-pyrimidine] | 5000 | – |
| Nc1cc(Cl)nc(SCc2ccc3cc(F)c(F)cc3c2)n1 [Example 60, 4-amino-6-chloro-2-(6,7-difluoro-2-naphthylmethylthio)-pyrimidine] | 10000 | – |
| NC(=O)c1ccnc(CSc2nc(N)cc(Cl)n2)c1 [Example 163, 4-amino-6-chloro-2-[2-(4-carboxamido)-pyridylmethylthio]-pyrimidine] | 20000 | – |
| Cc1ccc(CSc2nc(N)cc(Cl)n2)nc1 [Example 118, 4-amino-6-chloro-2-[2-(5-methyl)pyridylmethylthio]-pyrimidine] | 70 | – |
| Cc1cc(CSc2nc(N)cc(Cl)n2)nc(N(C)C)c1 [Example 154, 4-amino-6-chloro-2-[2-(6-dimethylamino-4-methyl)pyridylmethylthio]-pyrimidine] | 50 | – |
| CC(C)c1ccnc(CSc2nc(N)c(Br)c(Cl)n2)c1 [Example 166, 4-amino-5-bromo-6-chloro-2-[2-(4-isopropyl)pyridylmethylthio]-pyrimidine] | 20 | – |
| Nc1cc(Cl)nc(SCC(=O)c2ccccc2)n1 [Example 100, 4-amino-6-chloro-2-[2-(1-phenyl-1-ethanon)thio]-pyrimidine] | 2000 | – |
| 4-Amino-6-chloro-2-[[(5-chloroimidazo[1,2-a]pyridin-2-yl)methyl]thio]-pyrimidine [Example 172] | 50000 | – |
| Nc1cc(Cl)nc(SCc2ccc3ccccc3n2)n1 [Example 61, 4-amino-6-chloro-2-(2-quinolinylmethylthio)-pyrimidine] | 5000 | – |
| Nc1cc(Cl)nc(SCc2cccc(I)c2)n1 [Example 44, 4-amino-6-chloro-2-(3-iodophenylmethylthio)-pyrimidine] | 600 | – |
| Nc1cc(Cl)nc(SCc2cccnc2)n1 [Example 57, 4-amino-6-chloro-2-(3-pyridylmethylthio)-pyrimidine] | 10000 | – |
| N#Cc1ccnc(CSc2nc(N)cc(Cl)n2)c1 [Example 128, 4-amino-6-chloro-2-[2-(4-cyano)pyridylmethylthio]-pyrimidine] | 1000 | – |
| Cc1cnc(CSc2nc(N)cc(Cl)n2)cc1C [Example 140, 4-amino-6-chloro-2-[2-(4,5-dimethyl)pyridylmethylthio]-pyrimidine] | 20 | – |
| Nc1cc(Cl)nc(SC/C=C/c2ccccc2)n1 [Example 64, 4-amino-6-chloro-2-(E-styrylmethylthio)-pyrimidine] | 66 | – |
| Cc1c(N)nc(SCc2ccc3ccccc3c2)nc1Cl [Example 90, 4-amino-5-methyl-6-chloro-2-(2-naphthylmethylthio)-pyrimidine] | 5000 | – |
| Nc1cc(Cl)nc(SCc2ccc3c(c2)OCO3)n1 [Example 186, 4-Amino-6-chloro-2-[(piperon-5-ylmethyl)thio]pyrimidine] | 500 | – |
| Nc1cc(Cl)nc(SCc2cc3ccccc3s2)n1 [Example 158, 4-Amino-6-chloro-2-[(benzothiophen-2-ylmethyl)thio]pyrimidine] | 1000 | – |
| Nc1cc(Cl)nc(SCC2=CCCc3ccccc32)n1 [Example 187, 4-Amino-6-chloro-2-[[(3,4-dihydro-1-naphthalenyl)methyl]thio]pyrimidine] | 600 | – |
| CC(C)Oc1cccc(CSc2nc(N)cc(Cl)n2)c1 [Example 109, 4-amino-6-chloro-2-(3-isopropoxyphenylmethylthio)-pyrimidine] | 2000 | – |
| Nc1ccnc(SCc2cccc(Br)c2)n1 [Example 95, 4-amino-2-(3-bromophenylmethylthio)-pyrimidine] | 1000 | – |
